The values that follow come from patent publication US10239832B2, “N-(1-hydroxy-3-(pyrrolidinyl)propan-2-yl)pyrrolidine-3-carboxamide derivatives as glucosylceramide synthase inhibitors” (BIOMARIN PHARMACEUTICAL INC., priority 2013, dated 2019).

The assay concerns the target T1, GCS (Canis lupus familiaris, UniProt A0A8I3MXG6).
T1 construct: endogenous in cells; host or cells: MDCK (Madin-Darby canine kidney) cells, whole-cell lysate
T1 sequence (A0A8I3MXG6 1-394): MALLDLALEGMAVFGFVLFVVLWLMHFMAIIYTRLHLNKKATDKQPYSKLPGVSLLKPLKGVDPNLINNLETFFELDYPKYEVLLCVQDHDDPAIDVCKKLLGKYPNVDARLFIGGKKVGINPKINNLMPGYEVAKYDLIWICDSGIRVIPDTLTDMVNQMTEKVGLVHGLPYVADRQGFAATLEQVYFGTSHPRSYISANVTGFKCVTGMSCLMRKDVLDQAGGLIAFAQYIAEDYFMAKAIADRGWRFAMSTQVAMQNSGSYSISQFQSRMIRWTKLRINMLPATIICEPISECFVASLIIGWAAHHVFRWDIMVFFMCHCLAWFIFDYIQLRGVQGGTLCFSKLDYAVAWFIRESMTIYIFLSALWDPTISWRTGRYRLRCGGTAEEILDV
The assay is described as follows: GCS enzymatic assay (MDCK cell lysate, NBD-ceramide to glucosylceramide, LC/MS). Particulars: Table 2, the table does not say which of the assays; for Data Range (% inhibition): class symbols D, E, F, NA (not active); for IC50: class symbols A, B, C, read-out: Data Range (IC50 values). It counts as biochemical, canine. An outline of the steps:
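IC50 or percent inhibition came from LC/MS/MS (ESI+, MRM) of NBD-ceramide and glucosylceramide, with tolbutamide as internal standard. The reaction used MDCK (canine) cell lysate as the enzyme source and was ended with acetonitrile. Mock wells received 0.1% DMSO.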

As to `O=C(N[C@H](CN1CCCC1)[C@H](O)c1ccc2c(c1)OCCO2)[C@@H]1CCN(c2ccc(OC3CC3)nc2)C1` [Compound 58, (R)-1-(6-cyclopropoxypyridin-3-yl)-N-((1R,2R)-1-(2,3-dihydrobenzo[b][1,4]dioxin-6-yl)-1-hydroxy-3-(pyrrolidin-1-yl)propan-2-yl)pyrrolidine-3-carboxamide], the “Data Range (% inhibition)” value is given as “E (50-74% (or less than 75%))”.
Consider `O=C(N[C@H](CN1CCCC1)[C@H](O)c1ccc2c(c1)OCCO2)[C@H]1CCN(c2ccc(OC3CC3)nc2)C1` [Compound 58D, (S)-1-(6-cyclopropoxypyridin-3-yl)-N-((1R,2R)-1-(2,3-dihydrobenzo[b][1,4]dioxin-6-yl)-1-hydroxy-3-(pyrrolidin-1-yl)propan-2-yl)pyrrolidine-3-carboxamide], for which the “Data Range (% inhibition)” value is reported as “F (1-49% (or less than 50%))”.
`O=C(N[C@H](CN1CCCC1)[C@H](O)c1ccc(OC2COC2)c(Cl)c1)[C@@H]1CCN(c2ccc(Cl)cc2)C1` [Compound 59, (R)-N-((1R,2R)-1-(3-chloro-4-(oxetan-3-yloxy)phenyl)-1-hydroxy-3-(pyrrolidin-1-yl)propan-2-yl)-1-(4-chlorophenyl)pyrrolidine-3-carboxamide]: the “Data Range (% inhibition)” value is given as “F (1-49% (or less than 50%))”.
With `O=C(N[C@H](CN1CCCC1)[C@H](O)c1ccc(OCCN2CCC2)c(Cl)c1)[C@@H]1CCN(c2ccc(Cl)cc2)C1` [Compound 60, (R)-N-((1R,2R)-1-(4-(2-(azetidin-1-yl)ethoxy)-3-chlorophenyl)-1-hydroxy-3-(pyrrolidin-1-yl)propan-2-yl)-1-(4-chlorophenyl)pyrrolidine-3-carboxamide], the IC50 lay in the range of 1 to 30 nM.
Turning to `O=C(N[C@H](CN1CCCC1)[C@H](O)c1ccc(OCCN2CCC2)c(Cl)c1)[C@H]1CCN(c2ccc(Cl)cc2)C1` [Compound 60A, (S)-N-((1R,2R)-1-(4-(2-(azetidin-1-yl)ethoxy)-3-chlorophenyl)-1-hydroxy-3-(pyrrolidin-1-yl)propan-2-yl)-1-(4-chlorophenyl)pyrrolidine-3-carboxamide], the “Data Range (% inhibition)” value is reported as “NA (not active—a negative value was generated for % inhibition)”.
On to `Cn1ncc2ccc(N3CC[C@@H](C(=O)N[C@H](CN4CCCC4)[C@H](O)c4ccc5c(c4)OCCO5)C3)cc21` [Compound 61, (R)-N-((1R,2R)-1-(2,3-dihydrobenzo[b][1,4]dioxin-6-yl)-1-hydroxy-3-(pyrrolidin-1-yl)propan-2-yl)-1-(1-methyl-1H-indazol-6-yl)pyrrolidine-3-carboxamide], for which the “Data Range (% inhibition)” value is listed as “NA (not active—a negative value was generated for % inhibition)”.
In the case of `Cn1ncc2ccc(N3CCC(C(=O)N[C@H](CN4CCCC4)[C@H](O)c4ccc5c(c4)OCCO5)C3)cc21` (stereo partly drawn) [Compound 61C, N-((1R,2R)-1-(2,3-dihydrobenzo[b][1,4]dioxin-6-yl)-1-hydroxy-3-(pyrrolidin-1-yl)propan-2-yl)-1-(1-methyl-1H-indazol-6-yl)pyrrolidine-3-carboxamide], the IC50 fell in the range of 1 to 30 nM.
Regarding `Cn1ncc2ccc(N3CC[C@H](C(=O)N[C@H](CN4CCCC4)[C@H](O)c4ccc5c(c4)OCCO5)C3)cc21` [Compound 61D, (S)-N-((1R,2R)-1-(2,3-dihydrobenzo[b][1,4]dioxin-6-yl)-1-hydroxy-3-(pyrrolidin-1-yl)propan-2-yl)-1-(1-methyl-1H-indazol-6-yl)pyrrolidine-3-carboxamide], the IC50 lay within 1 to 30 nM.
For the compound `O=C(N[C@H](CN1CCCC1)[C@H](O)c1ccc(OC2COC2)nc1)[C@@H]1CCN(c2ccc(Cl)cc2)C1` [Compound 62, (R)-1-(4-chlorophenyl)-N-((1R,2R)-1-hydroxy-1-(6-(oxetan-3-yloxy)pyridin-3-yl)-3-(pyrrolidin-1-yl)propan-2-yl)pyrrolidine-3-carboxamide], the “Data Range (% inhibition)” value was “NA (not active—a negative value was generated for % inhibition)”.
For the compound `CN1CCc2ccc(N3CC[C@@H](C(=O)N[C@H](CN4CCCC4)[C@H](O)c4ccc5c(c4)OCCO5)C3)cc2C1` [Compound 63, (R)-N-((1R,2R)-1-(2,3-dihydrobenzo[b][1,4]dioxin-6-yl)-1-hydroxy-3-(pyrrolidin-1-yl)propan-2-yl)-1-(2-methyl-1,2,3,4-tetrahydroisoquinolin-7-yl)pyrrolidine-3-carboxamide], the “Data Range (% inhibition)” value is reported as “F (1-49% (or less than 50%))”.
On to `CN1CCc2ccc(N3CCC(C(=O)N[C@H](CN4CCCC4)[C@H](O)c4ccc5c(c4)OCCO5)C3)cc2C1` (stereo partly drawn) [Compound 63C, N-((1R,2R)-1-(2,3-dihydrobenzo[b][1,4]dioxin-6-yl)-1-hydroxy-3-(pyrrolidin-1-yl)propan-2-yl)-1-(2-methyl-1,2,3,4-tetrahydroisoquinolin-7-yl)pyrrolidine-3-carboxamide], for which the “Data Range (% inhibition)” value is given as “F (1-49% (or less than 50%))”.
On to `CN1CCc2ccc(N3CC[C@H](C(=O)N[C@H](CN4CCCC4)[C@H](O)c4ccc5c(c4)OCCO5)C3)cc2C1` [Compound 63D, (S)-N-((1R,2R)-1-(2,3-dihydrobenzo[b][1,4]dioxin-6-yl)-1-hydroxy-3-(pyrrolidin-1-yl)propan-2-yl)-1-(2-methyl-1,2,3,4-tetrahydroisoquinolin-7-yl)pyrrolidine-3-carboxamide], for which the “Data Range (% inhibition)” value is given as “NA (not active—a negative value was generated for % inhibition)”.
On to `CC1(C)CCc2cc(N3CCC(C(=O)N[C@H](CN4CCCC4)[C@H](O)c4ccc5c(c4)OCCO5)C3)ccc2O1` (stereo partly drawn) [Compound 64, N-((1R,2R)-1-(2,3-dihydrobenzo[b][1,4]dioxin-6-yl)-1-hydroxy-3-(pyrrolidin-1-yl)propan-2-yl)-1-(2,2-dimethylchroman-6-yl)pyrrolidine-3-carboxamide], for which the “Data Range (% inhibition)” value is recorded as “F (1-49% (or less than 50%))”.
As to `O=C(N[C@H](CN1CCCC1)[C@H](O)c1ccc(OC2CC2)c(F)c1)[C@@H]1CCN(c2ccc(Cl)cc2)C1` [Compound 65, (R)-1-(4-chlorophenyl)-N((1R,2R)-1-(4-cyclopropoxy-3-fluorophenyl)-1-hydroxy-3-(pyrrolidin-1-yl)propan-2-yl)pyrrolidine-3-carboxamide], the IC50 lay in the range of 1 to 30 nM.
Take `O=C(N[C@H](CN1CCCCC1)[C@H](O)c1ccc(OC2CC2)c(Cl)c1)[C@@H]1CCN(c2ccc(Cl)cc2)C1` [Compound 66, (R)-N-((1R,2R)-1-(3-chloro-4-cyclopropoxyphenyl)-1-hydroxy-3-(piperidin-1-yl)propan-2-yl)-1-(4-chlorophenyl)pyrrolidine-3-carboxamide]: the “Data Range (% inhibition)” value is “F (1-49% (or less than 50%))”.
For `O=C(N[C@H](CN1CCCC1)[C@H](O)c1ccc(OC2CC2)c(Cl)c1)[C@@H]1CCN(c2ccc3ccccc3c2)C1` [Compound 67, (R)-N-((1R,2R)-1-(3-chloro-4-cyclopropoxyphenyl)-1-hydroxy-3-(pyrrolidin-1-yl)propan-2-yl)-1-(naphthalen-2-yl)pyrrolidine-3-carboxamide], the IC50 is 1 to 30 nM.
On to `O=C(N[C@H](CN1CCCC1)[C@H](O)c1ccc(OC2CC2)c(Cl)c1)[C@H]1CCN(c2ccc3ccccc3c2)C1` [Compound 67C, (S)-N-((1R,2R)-1-(3-chloro-4-cyclopropoxyphenyl)-1-hydroxy-3-(pyrrolidin-1-yl)propan-2-yl)-1-(naphthalen-2-yl)pyrrolidine-3-carboxamide], for which the “Data Range (% inhibition)” value is “E (50-74% (or less than 75%))”.
Turning to `O=C(N[C@H](CN1CCCC1)[C@H](O)c1cc(F)c2c(c1)OCCO2)[C@@H]1CCN(c2ccc3ccccc3n2)C1` [Compound 68, (R)-N-((1R,2R)-1-(8-fluoro-2,3-dihydrobenzo[b][1,4]dioxin-6-yl)-1-hydroxy-3-(pyrrolidin-1-yl)propan-2-yl)-1-(quinolin-2-yl)pyrrolidine-3-carboxamide], the IC50 lay within 1 to 30 nM.
As for `O=C(N[C@H](CN1CCCC1)[C@H](O)c1ccc(OC2CC2)c(F)c1)[C@@H]1CCN(c2ccc(F)cc2)C1` [Compound 69, (R)-N-((1R,2R)-1-(4-cyclopropoxy-3-fluorophenyl)-1-hydroxy-3-(pyrrolidin-1-yl)propan-2-yl)-1-(4-fluorophenyl)pyrrolidine-3-carboxamide], the IC50 lay in the range of 1 to 30 nM.
With `O=C(N[C@H](CN1CCCC1)[C@H](O)c1ccc(OC2CC2)c(F)c1)[C@H]1CCN(c2ccc(F)cc2)C1` [Compound 69A, (S)-N-((1R,2R)-1-(4-cyclopropoxy-3-fluorophenyl)-1-hydroxy-3-(pyrrolidin-1-yl)propan-2-yl)-1-(4-fluorophenyl)pyrrolidine-3-carboxamide], the “Data Range (% inhibition)” value is on record as “F (1-49% (or less than 50%))”.
For the compound `O=C(N[C@H](CN1CCCC1)[C@H](O)c1ccc2c(c1)OCCO2)[C@@H]1CCN(c2ccc3ccccc3c2)C1` [Compound 70, (R)-N-((1R,2R)-1-(2,3-dihydrobenzo[b][1,4]dioxin-6-yl)-1-hydroxy-3-(pyrrolidin-1-yl)propan-2-yl)-1-(naphthalen-2-yl)pyrrolidine-3-carboxamide], the IC50 is 1 to 30 nM.
As to `O=C(N[C@H](CN1CCCC1)[C@H](O)c1ccc2c(c1)OCCO2)[C@H]1CCN(c2ccc3ccccc3c2)C1` [Compound 70A, (S)-N-((1R,2R)-1-(2,3-dihydrobenzo[b][1,4]dioxin-6-yl)-1-hydroxy-3-(pyrrolidin-1-yl)propan-2-yl)-1-(naphthalen-2-yl)pyrrolidine-3-carboxamide], the “Data Range (% inhibition)” value is “E (50-74% (or less than 75%))”.

The term IC50 denotes the concentration that inhibits the measured activity by half.
